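Assay format: 96-well plates, 48-hour exposure. TGI: total growth inhibition.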

Among the test systems are A549 NSCLC; HCT-15 colon; KM12 colon; MDA-MB-231 breast; MDA-MB-435; NCI/ADR-RES ovarian; PC-3 prostate; SF-295 CNS; SK-OV-3 ovarian; UACC-62 melanoma.
Test in all cases: inhibition of tumour cell growth, NCI panel, 48 h

`CCN(CC)CCOc1ccc(N2C(=O)c3cc(OC)c(OC)cc3C2=O)cc1`: the TGI in the experiment with A549 NSCLC, with HCT-15 colon, in the experiment on KM12 colon, in the experiment with MDA-MB-231 breast, in the experiment with MDA-MB-435 and in the experiment on NCI/ADR-RES ovarian was over 100 µM in each case. The TGI in the experiment with PC-3 prostate, in the experiment on SF-295 CNS, with SK-OV-3 ovarian and in the experiment on UACC-62 melanoma was over 100 µM each time.
Take `CC1CC[C@@]2(OC1)OC1C[C@H]3[C@@H]4CC[C@H]5CC(OC6OC(CO)C(OC7OC(CO)C(O)C(O)C7OC7OC(CO)C(O)C(O)C7O)C(O)C6O)CCC5(C)[C@H]4CCC3(C)C1[C@@H]2C` (stereo not given in full): the TGI with A549 NSCLC was 7.93 µM; in the experiment with HCT-15 colon it was 20.3 µM; in the experiment on KM12 colon it was 10.4 µM; with MDA-MB-231 breast, 3.04 µM; in the experiment on MDA-MB-435, 9.7 µM; in the experiment with NCI/ADR-RES ovarian it was 13.8 µM. Also, the TGI with PC-3 prostate came out at 1.52 µM; in the experiment with SF-295 CNS, 11 µM; in the experiment with SK-OV-3 ovarian, 6.04 µM; in the experiment on UACC-62 melanoma, 16.5 µM.
With `CCCNC(=O)CCC(C)[C@H]1CCC2C3C(C[C@H](OC(C)=O)[C@@]21C)[C@@]1(C)CCC2(C[C@H]1C[C@H]3OC(C)=O)OOC1(CCC(C)CC1)OO2` (stereo not given in full), the TGI in the experiment on A549 NSCLC is 5.26 µM; in the experiment with HCT-15 colon it was over 100 µM; with KM12 colon, 20.2 µM; in the experiment with MDA-MB-231 breast it was 98.4 µM; in the experiment with MDA-MB-435, 39.5 µM; in the experiment with NCI/ADR-RES ovarian, 40.5 µM. Besides, the TGI in the experiment on PC-3 prostate was over 100 µM; in the experiment on SF-295 CNS it was 52.5 µM; in the experiment with SK-OV-3 ovarian, over 100 µM; with UACC-62 melanoma it was over 100 µM.
In the case of `O=C(/C=C/c1ccsc1)c1ccsc1`, the TGI is over 100 µM in the experiment on A549 NSCLC; 41.5 µM in the experiment on HCT-15 colon; 37.7 µM in the experiment with KM12 colon; 42.4 µM in the experiment with MDA-MB-231 breast; 42.4 µM in the experiment on MDA-MB-435; over 100 µM with NCI/ADR-RES ovarian. Moreover, the TGI is 35.6 µM in the experiment with PC-3 prostate, over 100 µM with SF-295 CNS, over 100 µM with SK-OV-3 ovarian and 89.9 µM with UACC-62 melanoma.
Consider `CN(C)CCCN1C(=S)N(CCCN(C)C)c2c3cc(O)ccc3nc3c([N+](=O)[O-])ccc1c23`, for which the TGI with A549 NSCLC was determined as 9.73 µM; in the experiment on HCT-15 colon, 12.6 µM; with KM12 colon it was 9.51 µM; in the experiment on MDA-MB-231 breast, 25.5 µM; in the experiment with MDA-MB-435 it was 15.3 µM; with NCI/ADR-RES ovarian, 22.4 µM. Further, the TGI was determined as 13.3 µM with PC-3 prostate, 19 µM in the experiment with SF-295 CNS, 17.2 µM in the experiment on SK-OV-3 ovarian and 19.6 µM with UACC-62 melanoma.
Turning to `NNC(=O)c1ccc[n+](CCc2ccccc2)c1`, the TGI in the experiment with A549 NSCLC, in the experiment on HCT-15 colon, in the experiment with KM12 colon, in the experiment with MDA-MB-231 breast, in the experiment on MDA-MB-435 and with NCI/ADR-RES ovarian was over 100 µM throughout. The TGI in the experiment on PC-3 prostate, with SF-295 CNS, with SK-OV-3 ovarian and with UACC-62 melanoma was over 100 µM in each case.
Take `O=C(CCCN1CCC2(CC1)CC(=O)N(N1CCOCC1)C2=O)c1ccccc1`: the TGI was over 100 µM in the experiment on A549 NSCLC; over 100 µM in the experiment on HCT-15 colon; over 100 µM with KM12 colon; over 100 µM in the experiment with MDA-MB-231 breast; 35.4 µM in the experiment on MDA-MB-435; over 100 µM in the experiment with NCI/ADR-RES ovarian. In addition, the TGI in the experiment on PC-3 prostate, in the experiment on SF-295 CNS, with SK-OV-3 ovarian and in the experiment on UACC-62 melanoma was over 100 µM each time.
For `CN(C)c1nc(=NCc2ccccc2)ss1`, the TGI in the experiment with A549 NSCLC, in the experiment with HCT-15 colon, in the experiment on KM12 colon, with MDA-MB-231 breast, in the experiment on MDA-MB-435 and in the experiment on NCI/ADR-RES ovarian was over 10 µM throughout. Further, the TGI with PC-3 prostate, in the experiment with SF-295 CNS, with SK-OV-3 ovarian and in the experiment on UACC-62 melanoma was over 10 µM throughout.
On to `COC(=O)c1c2c(cc3c1CC1(C3)Cc3cc4c(c(C(=O)OC)c3C1)CCCC4)CCCC2`, for which the TGI with A549 NSCLC, with HCT-15 colon, in the experiment on KM12 colon, in the experiment with MDA-MB-231 breast, in the experiment on MDA-MB-435 and in the experiment with NCI/ADR-RES ovarian was over 100 µM in each case. Also, the TGI is 39.5 µM in the experiment with PC-3 prostate, over 100 µM in the experiment with SF-295 CNS, over 100 µM with SK-OV-3 ovarian and over 100 µM in the experiment with UACC-62 melanoma.
Regarding `COc1cc(C2SCC(=O)N2c2ccc(NC(=O)c3ccc(N4C(=O)CSC4c4cc(OC)c(OC)c(OC)c4)cc3)cc2)cc(OC)c1OC` (stereo not given), the TGI in the experiment on A549 NSCLC is over 100 µM; in the experiment on HCT-15 colon it was over 100 µM; with KM12 colon it was over 100 µM; with MDA-MB-231 breast, over 100 µM; in the experiment with MDA-MB-435, 61.4 µM; in the experiment with NCI/ADR-RES ovarian, 70.6 µM. The TGI is over 100 µM in the experiment on PC-3 prostate, over 100 µM in the experiment with SF-295 CNS, over 100 µM with SK-OV-3 ovarian and 76.6 µM in the experiment with UACC-62 melanoma.
Regarding `CN(C)c1ccc(C=C2N=C(c3ccccc3)N(c3cc(C(=O)c4ccccc4)ccc3N3C(=O)/C(=C/c4ccc(N(C)C)cc4)N=C3c3ccccc3)C2=O)cc1`, the TGI was over 100 µM in the experiment on A549 NSCLC; over 100 µM with HCT-15 colon; over 100 µM in the experiment on KM12 colon; over 100 µM in the experiment on MDA-MB-231 breast; 4.42 µM in the experiment with MDA-MB-435; 85.1 µM with NCI/ADR-RES ovarian. The TGI was 28.2 µM with PC-3 prostate, 27.1 µM in the experiment with SF-295 CNS, over 100 µM with SK-OV-3 ovarian and over 100 µM in the experiment on UACC-62 melanoma.
With `Oc1ccccc1/C=N/c1nc2cc3sc(/N=C/c4ccccc4O)nc3cc2s1`, the TGI in the experiment on A549 NSCLC, with HCT-15 colon, in the experiment with KM12 colon, in the experiment with MDA-MB-231 breast, in the experiment with MDA-MB-435 and with NCI/ADR-RES ovarian was over 100 µM in each case. Further, the TGI in the experiment with PC-3 prostate, with SF-295 CNS, in the experiment with SK-OV-3 ovarian and with UACC-62 melanoma was over 100 µM each time.
